In US8067204B2, “Long-chain chondroitin sugar chain and method for producing the same and method for promoting synthesis of chondroitin” (Seikagaku Corporation, priority 2005, dated 2011):

Target: T1, bacterial cell enzyme (E. coli expressing CH polymerase K4CP) (Escherichia coli, UniProt Q8L0V4)
T1 construct: His tag (from vector pTrcHis); expressed in transfected cells; host or cells: E. coli transformed with the pTrcHis-K4CP vector and induced with IPTG; The whole-cell pellet was used as the enzyme; TOP10 is named only as the preferred host
Assay: Incorporation of [3H]GalNAc into the polymer (CH) fraction by the bacterial cell enzyme
Assay type: biochemical, Escherichia coli K4 strain
Details: for influence of surfactant on incorporation of [3H]GalNAc: FIG. 4
Method: According to the method described in Japanese Patent Application No. 2003-199583, the gene of the CH polymerase (K4CP) enzyme derived from E. coli and an expression vector were prepared. the plasmid pTrcHis (manufactured by Invitrogen Corporation) was used as the expression vector. The expression vector obtained by the method was introduced to E. coli. The E. coli was cultured at 37° C. in an ampicillin-containing LB medium until absorbance of the culture medium reached about 0.6 at a wavelength of 600 nm. β-isopropylthiogalactoside (IPTG), which is an expression induction molecule, was added to the culture medium in such an amount that attains a final concentration of 1 mM, and culture was further performed at 37° C. for 3 hours to induce an enzyme expression. 1 ml of the culture medium was taken and transferred to a centrifugation tube to undergo centrifugation at 10,000 rpm for 1 minute. After the supernatant was discarded, a cell precipitate was used a bacterial cell enzyme. Further, the cell precipitate can maintain the enzymatic activity at least for 1 year by storing at −80° C.
To the bacterial cell enzyme obtained in Example 1, 50 mM of Tris-HCl (pH of 7.2) buffer solution containing 20 mM of MnCl2, 150 mM of NaCl, 0.1 nmol of CH6, 3 nmol of UDP-GalNAc, 0.2 μCi of UDP-[^3H] GalNAc, and 3 nmol of UDP-GlcUA, and a surfactant (Nymeen S-215; manufactured by NOF CORPORATION) at a final concentration of 0, 0.1, 0.2, 0.4, 1.0, or 2.0% was added and suspended. Each of the suspensions was shaken at 30° C. for 15 hours. After the reaction, each of the suspensions was heat-treated for 10 minutes in boiling water, and then centrifuged at 15,000 rpm for 5 minutes to remove a precipitate. Each of the supernatants was subjected to gel filtration using Superdex peptide HR 10/30 column (manufactured by Amersham Biosciences Co., Ltd.). The sugar chains in each of the eluted solutions were detected based on the absorbance at 225 nm.
An eluted fraction which corresponds to the absorption peak residing in a polymer region was obtained, and an incorporation of [^3H] GalNAc was detected. The incorporation was shown by the ratio (%) of the incorporated radioactivity with respect to the total radioactivity as 100%.
(§1) The same test as Example 3 was performed using various kinds of surfactants each having a final concentration of 0.4% to examine how various kinds of surfactants influence on the incorporation of [^3H] GalNAc. As an enzyme, the bacterial cell enzyme produced in Example 1 was used. Further, the surfactants used are described below.
as §1, with “organic solvents” for “surfactants”, “1%” for “0.4%”, “the influence of the” for “how”, “organic solvents” for “surfactants influence”, “prepared” for “produced”
The incorporation was shown by the ratio (%) of the incorporated radioactivity with respect to the total radioactivity of [^3H] GalNAc used as 100%. It should be noted that the term “without organic solvent” in FIG. 5 means a case where the bacterial cell enzyme was reacted in the absence of organic solvents.
Besides, in order to examine the concentration dependency in the case of using chloroform as an organic solvent, the same test as Example 3 was performed by setting chloroform concentration in the enzyme reaction solution to 0, 0.5, 1.0, 2.0, 5.0, or 10.0%, thereby the amount of incorporation of [^3H] GalNAc in the polymer fraction was examined.

[1] = surfactant final concentration 0.4%

T1 sequence (Q8L0V4 whole entry): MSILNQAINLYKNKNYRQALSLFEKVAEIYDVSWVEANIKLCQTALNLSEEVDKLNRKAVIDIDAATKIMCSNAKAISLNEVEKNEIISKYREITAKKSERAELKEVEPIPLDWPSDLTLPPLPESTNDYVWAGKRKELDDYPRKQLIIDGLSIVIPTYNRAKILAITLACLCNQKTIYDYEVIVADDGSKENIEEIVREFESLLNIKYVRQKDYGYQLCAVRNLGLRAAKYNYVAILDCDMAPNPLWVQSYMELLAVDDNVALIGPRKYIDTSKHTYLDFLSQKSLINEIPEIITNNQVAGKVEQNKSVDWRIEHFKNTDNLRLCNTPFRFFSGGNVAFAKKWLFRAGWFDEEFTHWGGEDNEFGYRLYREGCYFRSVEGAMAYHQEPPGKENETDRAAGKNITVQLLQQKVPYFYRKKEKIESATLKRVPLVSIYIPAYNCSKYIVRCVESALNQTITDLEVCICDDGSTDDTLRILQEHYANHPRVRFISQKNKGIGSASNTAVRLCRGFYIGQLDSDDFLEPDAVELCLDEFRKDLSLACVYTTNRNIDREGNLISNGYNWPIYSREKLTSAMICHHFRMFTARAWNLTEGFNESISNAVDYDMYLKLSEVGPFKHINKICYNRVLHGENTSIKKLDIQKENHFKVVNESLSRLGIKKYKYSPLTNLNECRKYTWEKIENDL

ClC(Cl)Cl [chloroform, Chloroform]
incorporation of [3H]GalNAc in the polymer fraction, dependence on chloroform concentration (chloroform concentration more than 0% to less than 5% (tested 0, 0.5, 1.0, 2.0, 5.0, 10.0%), FIG. 6): promoted | influence of organic solvent on incorporation of [3H]GalNAc (organic solvent final concentration 1%, FIG. 5): promoted the incorporation

CCCCCCCCCS[C@@H]1O[C@H](CO)[C@@H](O[C@H]2O[C@H](CO)[C@@H](O)[C@H](O)[C@H]2O)[C@H](O)[C@H]1O [n-nonyl-β-D-thiomaltopyranoside]
influence of surfactant on incorporation of [3H]GalNAc [1]: particularly efficient incorporation

Sucrose monocaprate
influence of surfactant on incorporation of [3H]GalNAc [1]: particularly efficient incorporation

Sucrose monolaurate
influence of surfactant on incorporation of [3H]GalNAc [1]: particularly efficient incorporation

polyoxyethylene octadecyl amine [Nymeen S-215]
incorporation of [3H]GalNAc into the polymer fraction (ratio of incorporated to total radioactivity) (surfactant concentration 0.4% or more at the time of the enzyme reaction, 30° C., 15 hours, FIG. 1): about 37% | incorporation of used [3H]GalNAc into the polymer fraction (surfactant final concentration 0.4%, Example 4, reconfirmation): about 37%
